Measured values taken from patent publication US8129527B2, “Analogs of dehydrophenylahistins and their therapeutic use” (Nereus Pharmacuticals, Inc., priority 2006, dated 2012).
In brackets after ≈: the same amount, converted by molar mass. Read-outs that look alike come from different tables or passages of the source. Marks after values point to notes of the source that are not given here.

How the values were obtained:
[1] = system: MAP-rich microtubules; experiment: Microtubule mean length distributions, transmission electron microscopy; type: biochemical, bovine; conditions: in words
Method: Transmission electron microscopy was used to determine the mean length distribution of microtubules in the absence or presence of tested agent. At 75 minutes and prior to sedimentation, 10 μl aliquots from the polymer mass experiments were fixed by dilution into 290 μl PEM100-buffered 0.2% glutaraldehyde. Thirty microliters of fixed sample was settled onto formvar-coated 150 ICG mesh electron microscope grids for 90 seconds. Excess sample was wicked off with Whatman filter paper. Thirty microliters of cytochrome C (1 mg/ml) was applied for 30 seconds to enhance protofilament resolution and facilitate negative staining. Uranyl acetate (1.5%) was applied for 20 seconds and the excess was wicked off Grids were viewed in a Jeol electron microscope-1200 EX11 at 2000× and 30,000× magnification. The Zeiss MOPIII was used to determine microtubule length distributions and mean lengths for at least 100 microtubules per sample.

[2] = system: MCF7 human breast carcinoma cells; experiment: Mitotic progression (mitotic index); type: cell-based; conditions: 20 hours, read-out: Mitotic block Ave. IC50 ± sd
Method: The fraction of cells in mitosis at a given drug concentration (mitotic index) was determined in the breast cancer cell line MCF7. Cells were plated at a density of 3×10^4 cells/ml in six-well plates. After 24 hours, cells were incubated in the absence or presence of drug over a range of concentrations (1 nM to 1 μM) for 20 hours. […] Cells were fixed with 10% formalin in PBS overnight at 37° C., permeabilized in methanol for 10 minutes, and stained with 4,6-diamidino-phenylindole (DAPI) to visualize nuclei. Stained cells were spread on coverslips in Vectashield mounting media (Burlingame, Calif.) and sealed onto slides with nail polish. Fluorescence microscopy was used to determine mitotic indices.

[3] = system: MCF7 cells, GFP-alpha-tubulin; experiment: Analysis of microtubule dynamics, time-lapse microscopy; type: cell-based, human
[4] = Tumor panel screen cytotoxicity (Example 10A); type: cell-based, human; conditions: human, CCD-27sk normal fibroblast cells; CCD-27sk Fibroblast; maximum cytotoxic effect
Source text: (§1) Cells were maintained at subconfluent densities in their respective culture media.

[5] = system: B16-F10 (murine melanoma); experiment: Tumor panel screen cytotoxicity (Example 10A); type: cell-based
Source text: as §1

[6] = system: CCD-27sk (normal human fibroblast); experiment: Tumor panel screen cytotoxicity (Example 10A); type: cell-based; conditions: Homo sapiens; CCD-27sk Fibroblast
Source text: as §1

[7] = system: HT29 (human colon tumor); experiment: Tumor panel screen cytotoxicity (Example 10A); type: cell-based; conditions: HT-29 Colon
Source text: as §1

[8] = system: MDA-MB-231 (human breast tumor); experiment: Tumor panel screen cytotoxicity (Example 10A); type: cell-based; conditions: MDA-MB-231 Breast
Source text: as §1

[9] = system: NCI-H292 (human non-small cell lung tumor); experiment: Tumor panel screen cytotoxicity (Example 10A); type: cell-based
Source text: as §1

[10] = system: OVCAR-3 (human ovarian tumor); experiment: Tumor panel screen cytotoxicity (Example 10A); type: cell-based; conditions: OVCAR-3 Ovary
Source text: as §1

[11] = system: PC3 (human prostate tumor); experiment: Tumor panel screen cytotoxicity (Example 10A); type: cell-based; conditions: PC-3 Prostate
Source text: as §1

[12] = system: MES-SA (Taxol Sensitive) human uterine sarcoma; experiment: Drug resistant cell line pair, cytotoxicity (Example 10B); type: cell-based
Source text: (§2) 1) Human Uterine Sarcoma Tumor Cell Line Pair: MES-SA (Taxol Sensitive) and MES-SA/Dx5 (Taxol Resistant).

[13] = system: MES-SA/Dx5 (Taxol Resistant) human uterine sarcoma; experiment: as above; type: cell-based
Source text: as §2

[14] = system: HL-60 (Mitoxantrone-Sensitive) human acute promyelocytic leukemia; experiment: as above; type: cell-based; conditions: HL-60 Sensitive
Source text: (§3) 2) Human Acute Promyelocytic Leukemia Cell Line Pair: HL-60 (Mitoxantrone-Sensitive) and HL-60/MX-2 (Mitoxantrone-Resistant)

[15] = system: HL-60/MX-2 (Mitoxantrone-Resistant); experiment: as above; type: cell-based, human; conditions: Homo sapiens, HL60/MX2; HL-60 Resistant (HL-60/MX-2)
Source text: as §3

[16] = system: HT-29 human colon tumor; experiment: HT-29 Human Colon Tumor Xenograft Model; type: in vivo
Method: (§4) Selected novel compounds were administered as monotherapy via the intraperitoneal (i.p.) route at the doses indicated for the individual study; for the combination studies the selected reference chemotherapy agents were injected 15-30 min prior to the compound.
(§5) Saline dilutions are used to achieve the injection concentrations used for the reference compounds.
Animals were implanted subcutaneously (s.c.) by trocar with fragments of HT-29 tumors harvested from s.c. growing tumors in nude mice hosts. When the tumor size reached 5 mm×5 mm (about 10-17 days) the animals were matched into treatment and control groups. Mice were weighed twice weekly and tumor measurements were obtained using calipers twice weekly, starting on Day 1. The tumor measurements were converted to estimated mg tumor weight using the formula (W^2×L)/2. When the estimated tumor weight of the control group reached an average of 1000 mg the mice were weighed, sacrificed and the tumor removed.

[17] = system: MCF-7 human breast tumor; experiment: MCF-7 Human Breast Tumor Xenograft Model; type: in vivo, nude mice; conditions: in combination with taxotere
Method: Animals used were (exceptions are indicated for individual studies): female nude mice (nu/nu) between 5 and 6 weeks of age (˜20 g, Harlan); group size was 9-10 mice per group unless otherwise indicated.
as §4, §5
Female nude mice (˜20 g) were implanted s.c. with 21-day release estrogen (0.25 mg) pellets 24 hours prior to the s.c. implantation with MCF-7 tumor fragments (harvested from s.c. tumors in nude mice hosts). The study then proceeded as described for the HT-29 model, using taxotere as the standard chemotherapy agent.
In this model unless otherwise noted for the individual study, the novel compounds were injected via the intraperitoneal route daily on Days 1-5, inclusive (qdx5); taxotere was administered intravenously on Days 1, 3 and 5 (qodx3).
The doses of the compounds were administered on Days 1, 2, 3, 4, and 7; Taxotere was administered on Days 1, 3 and 7.

[18] = system: Aspergillus fumigatus; experiment: Antifungal susceptibility testing, broth dilution (MIC/MFC); type: cell-based; conditions: Aspergillus fumigatus; for MIC: read-out: MIC
Outline: (§6)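 Tested against two isolates per species (one for C. glabrata). After MIC, fungicidal concentration determined by plating 0.1 μl from MIC and each higher concentration.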

[19] = system: Candida albicans; experiment: as above; type: cell-based; conditions: Candida albicans; C. albicans 90028; read-out: MIC
Outline: as §6

[20] = system: Candida glabrata; experiment: as above; type: cell-based; conditions: Nakaseomyces glabratus; C. glabrata; read-out: MIC
Outline: as §6

[21] = system: HuVEC; experiment: Action on microtubule function, α-tubulin staining; conditions: 2 μM, thirty minutes exposure
[22] = Table 28, concentration effecting 25% of the maximal mitotic block
[23] = Table 29, concentration effecting 50% of the maximal mitotic block

SMILES: COc1ccc(/C=C\c2cc(OC)c(OC)c(OC)c2)cc1O [CA4, Combretastatin A4]
- MT nucleation [1]: did not affect MT nucleation
- IC50 [2]: 5.4 ± 0.7 nM
- % time spent, Attenuation [3, 22]: 39.50%
- % time spent, Growth [3, 22]: 35.31%
- % time spent, Shortening [3, 22]: 25.19%
- Freq. of Catastrophe [3, 22]: 1.52 min⁻¹
- Freq. of Rescue [3, 22]: 1.90 min⁻¹
- Mean duration, Attenuation [3, 22]: 0.45 min
- Mean duration, Growth [3, 22]: 0.27 min
- Mean duration, Shortening [3, 22]: 0.21 min
- Mean rates, Growth [3, 22]: 10.59 μm/min
- Mean rates, Shortening [3, 22]: 40.21 μm/min
- Dyn. ([3]; Table 28, dynamicity, concentration effecting 25% of the maximal mitotic block): 13.87 μm/min
- % time spent, Attenuation [3, 23]: 36.23%
- % time spent, Growth [3, 23]: 43.64%
- % time spent, Shortening [3, 23]: 20.13%
- Dynamicity [3, 23]: 10.91 μm/min
- Freq. of Catastrophe [3, 23]: 1.09 min⁻¹
- Freq. of Rescue [3, 23]: 2.79 min⁻¹
- Mean duration, Attenuation [3, 23]: 0.55 min
- Mean duration, Growth [3, 23]: 0.33 min
- Mean duration, Shortening [3, 23]: 0.22 min
- Mean rates, Growth [3, 23]: 11.21 μm/min
- Mean rates, Shortening [3, 23]: 29.88 μm/min
- MT dynamic instability ([3]; concentrations effecting 25% or 50% of maximal mitotic block): did not have a measurable effect on MT dynamic instability

SMILES: CC(C)(C)c1[nH]cnc1/C=C1\NC(=O)[C@H](Cc2ccccc2)NC1=O [t-butyl-phenylahistin]
- cytotoxicity at 48 h [4]: 45%
- IC50 ([5]; Mus musculus): 736 nM
- % Cytotoxicity Mean ([5]; maximum cytotoxic effect): 74%
- IC50 [6]: > 20000 nM
- % Cytotoxicity Mean ([7]; maximum cytotoxic effect): 88%
- IC50 ([7]; Homo sapiens): 420 nM
- IC50 ([8]; Homo sapiens): 387 nM
- % Cytotoxicity Mean ([8]; maximum cytotoxic effect): 65.5%
- IC50 ([9]; Homo sapiens): 384 nM
- % Cytotoxicity Mean ([9]; maximum cytotoxic effect): 65%
- IC50 ([10]; Homo sapiens): > 20000 nM
- % Cytotoxicity Mean ([10]; maximum cytotoxic effect): 37%
- IC50 ([11]; Homo sapiens): 174 nM
- % Cytotoxicity Mean ([11]; maximum cytotoxic effect): 59.5%
- IC50 ([12]; Homo sapiens, MES-SA, CsA Pretreat, Studies II-III in separate lines): 162 nM
- IC50 ([12]; Homo sapiens, MES-SA, No CsA, Studies I-III in separate lines): 144 nM
- IC50 ([12]; No CsA, Studies I-III in separate lines): 122 nM
- IC50 ([13]; Homo sapiens, MES-SA/Dx5, MES-SA/DX5 Resistant, CsA Pretreat, Studies II-III in separate lines): 622 nM
- IC50 ([13]; Homo sapiens, MES-SA/Dx5, MES-SA/DX5 Resistant, No CsA, Studies I-III in separate lines): 825 nM
- IC50 ([13]; MES-SA/DX5 Resistant, No CsA, Studies I-III in separate lines): 694 nM
- potency in the resistant MES-SA/DX5 line vs the sensitive line ([13]; in words): only slightly reduced
- IC50 [14]: 255 nM
- IC50 [15]: 175 nM
- Comments (combination with CPT-11) ([16]; NPI compound + CPT-11 100 ip qwx3, study and dose as in the line): Synergy
- NPI-Compound Result TGI % ([16]; Study 2139, monotherapy 30 mg/kg ip q3dx5): No Effect
- Combination Results TGI % ([16]; Study 2139, t-butyl-phenylahistin 30 mg/kg ip q3dx5 + CPT-11 100 ip qwx3): 77.7 *, # %
- Exceed NCI Criterion (TGI ≧ 58%) ([16]; which treatment group exceeds the criterion, NPI compound, CPT-11 100 ip qwx3 or combination, study and dose as in the line): Combination
- effect on estimated tumor growth [17]: significant potentiation of taxotere
- MIC ([18]; A. fumigatus isolate #1): > 16 µg/mL
- MFC ([18]; A. fumigatus isolate #2): 0.125 µg/mL (≈ 0.369 µM)
- MIC ([18]; A. fumigatus isolate #2): < 0.03 µg/mL
- MIC [19]: > 32 µg/mL
- MIC [20]: > 32 µg/mL
- microtubule depolymerization in HuVEC cells [21]: induced microtubule depolymerization
